In one data set the target is Galectin-1 (Homo sapiens, UniProt P09382). Put plainly: Binding affinity to human galectin-1 using 3,3'-dideoxy-3-[4-(fluorescein-5-yl-carbonylaminomethyl)-1H-1,2,3-triazol-1-y1]-3'.(3,5-dimethoxy-benzamido)-1,1'-sulfanediyl-di-beta-D-galactopyranoside as fluorescent probe by fluorescence polarization analysis.
Data set [1] deals with T1, Galectin-4 (Homo sapiens, UniProt P56470).
T1 sequence (P56470 whole entry): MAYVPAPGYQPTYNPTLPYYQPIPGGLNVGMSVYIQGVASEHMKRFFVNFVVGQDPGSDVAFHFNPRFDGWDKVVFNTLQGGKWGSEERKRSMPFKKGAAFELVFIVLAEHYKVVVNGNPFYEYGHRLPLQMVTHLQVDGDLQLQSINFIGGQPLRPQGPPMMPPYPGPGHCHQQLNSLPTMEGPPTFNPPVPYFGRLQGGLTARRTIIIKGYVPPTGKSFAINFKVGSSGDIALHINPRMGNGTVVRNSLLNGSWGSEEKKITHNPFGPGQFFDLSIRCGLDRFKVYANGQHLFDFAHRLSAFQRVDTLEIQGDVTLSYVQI
The data set is described as follows: Binding affinity to human galectin-4N expressed in Escherichia coli BL21 using 3,3'-dideoxy-3-[4-(fluorescein-5-yl-carbonylaminomethyl)-1H-1,2,3-triazol-1-y1]-3'-(3,5-dimethoxy-benzamido)-1,1'-sulfanediyl-di-beta-D-galactopyranoside as fluorescent probe by fluorescence polarization analysis. A general note: In fluorescence polarisation assays a small probe gives low polarisation when free and higher when bound to something large.

Data set [2] has as its target T1, Galectin-4.
The target in data set [3] is T2, Galectin-8 (Homo sapiens, UniProt O00214).
T2 sequence (O00214 whole entry): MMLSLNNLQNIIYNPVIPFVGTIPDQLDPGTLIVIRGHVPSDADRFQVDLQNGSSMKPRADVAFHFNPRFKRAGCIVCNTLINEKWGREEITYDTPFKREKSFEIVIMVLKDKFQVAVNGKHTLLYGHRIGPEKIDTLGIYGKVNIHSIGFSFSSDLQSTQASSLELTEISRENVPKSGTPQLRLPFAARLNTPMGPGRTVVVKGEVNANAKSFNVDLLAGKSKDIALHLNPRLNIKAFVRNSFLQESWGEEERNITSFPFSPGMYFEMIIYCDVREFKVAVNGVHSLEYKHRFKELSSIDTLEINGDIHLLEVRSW
Put plainly: Binding affinity to human galectin-8C expressed in Escherichia coli BL21(DE3) using 3,3'-dideoxy-3-[4-(fluorescein-5-yl-carbonylaminomethyl)-1H-1,2,3-triazol-1-y1]-3'-(3,5-dimethoxy-benzamido)-1,1'-sulfanediyl-di-beta-D-galactopyranoside as fluorescent probe by fluorescence polarization analysis.

Data set [4] deals with T3, Galectin-8 (Homo sapiens) (UniProt O00214).
T3 sequence (whole entry): T2 sequence (O00214 whole entry)
The data set is described as follows: Antagonist activity against human galectin-8N assessed as inhibition of galectin-8N at 2 mM by fluorescence polarization analysis relative to control.

Data set [5] in a line: Cytotoxicity against human US7 patient-derived BCP-ALL cells co-cultured with irradiated OP9 stromal cells assessed as reduction in cell viability incubated for 24 hrs by Alamar blue assay. The data set is classed as functional, cell-based. The note with it: US7, light or radiation study. For orientation: Alamar Blue is a resazurin reagent that responds to reducing activity.

The target of data set [6] is T2, Galectin-8. The data set is described as follows: Binding affinity to human galectin-8N using 3,3'-dideoxy-3-[4-(fluorescein-5-yl-carbonylaminomethyl)-1H-1,2,3-triazol-1-y1]-3'.(3,5-dimethoxy-benzamido)-1,1'-sulfanediyl-di-beta-D-galactopyranoside as fluorescent probe by fluorescence polarization analysis.
Data set [7] has as its system LAX40. Put plainly: Cytotoxicity against human LAX40 patient-derived BCP-ALL cells co-cultured with irradiated OP9 stromal cells assessed as reduction in cell viability at 100 uM for 1 to 3 days by trypan blue staining based assay. The data set is classed as functional. The note with it: time 1-3 day, TDE = time-dependent effect.
The test system of data set [8] is LAX40. The data set is described as follows: Cytostatic activity against human LAX40 patient-derived BCP-ALL cells co-cultured with irradiated OP9 stromal cells assessed as reduction in cell viability at 100 uM for 1 to 3 days by trypan blue staining based assay. The data set is classed as functional. The note with it: time 1-3 day, TDE = time-dependent effect.

A short description of data set [9]: Binding affinity to human galectin-1 C3S mutant by fluorescence polarization analysis.
The next data set relates to TXL2. The data set is described as follows: Induction of cell death in human TXL2 patient-derived BCP-ALL cells assessed as reduction in viable cells at 0.5 to 800 uM incubated for 24 hrs by Alamar blue assay. The data set is classed as functional, cell-based. The note with it: dose 0.5-800 µM, DDE = dose-dependent effect.
The subject of a further data set is US7. Put plainly: Induction of cell death in human US7 patient-derived BCP-ALL cells assessed as reduction in viable cells at 0.5 to 800 uM incubated for 24 hrs by Alamar blue assay. The note with it: dose 0.5-800 µM, DDE = dose-dependent effect. The data set is classed as functional, cell-based.
A short description of data set [10]: Cytotoxicity against mouse bone marrow-derived stromal OP9 cells assessed as live cells at 100 uM measured after 3 days by trypan blue staining based assay relative to control. The data set is classed as toxicity, cell-based. The note with it: time 3 day, read-out: Activity.
Data set [11] has as its target T4, Galectin-4 (Homo sapiens) (UniProt P56470).
T4 sequence (whole entry): T1 sequence (P56470 whole entry)
Put plainly: Antagonist activity against human galectin-4N expressed in Escherichia coli BL21 assessed as inhibition of galectin-4N at 2 mM using 3,3'-dideoxy-3-[4-(fluorescein-5-yl-carbonylaminomethyl)-1H-1,2,3-triazol-1-y1]-3'-(3,5-dimethoxy-benzamido)-1,1'-sulfanediyl-di-beta-D-galactopyranoside as fluorescent probe by fluorescence polarization analysis relative to control.

In a further data set the target is Galectin-3 (Homo sapiens, UniProt P17931).
Sequence of Galectin-3 (P17931 whole entry): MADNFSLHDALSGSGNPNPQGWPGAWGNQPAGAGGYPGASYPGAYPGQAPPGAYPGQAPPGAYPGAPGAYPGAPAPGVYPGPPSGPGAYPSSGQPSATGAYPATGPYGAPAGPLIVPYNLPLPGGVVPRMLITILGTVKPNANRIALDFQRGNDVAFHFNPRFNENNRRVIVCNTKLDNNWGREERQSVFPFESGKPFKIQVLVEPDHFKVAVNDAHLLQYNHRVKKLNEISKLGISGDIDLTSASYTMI

Sequence of Galectin-1 (P09382 whole entry): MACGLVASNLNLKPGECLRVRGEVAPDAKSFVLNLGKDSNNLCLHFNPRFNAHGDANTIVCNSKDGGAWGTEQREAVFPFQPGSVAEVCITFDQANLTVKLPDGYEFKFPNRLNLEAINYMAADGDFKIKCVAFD
Description for Galectin-3: Binding affinity to human galectin-3 using 2-(fluorescein-5/6-yl-carbonylamino)-ethyl 2-acetamido-2-deoxy-alpha-D-galactopyranosyl-(1-3)-[alpha-L-fucopyranosyl-(1-2)]-beta-D-galactopyranosyl-(1-4)-beta-D-glucopyranoside by fluorescence polarization analysis

As for `CO[C@@H]1O[C@H](CO)[C@H](O)[C@H](OC(=O)c2ccc(C)cc2)[C@@H]1OC(=O)c1ccc(F)cc1[N+](=O)[O-]`, the Kd (usually the concentration at which binding is half-saturated) on Galectin-1 worked out at 2100 µM; at Galectin-4 [1], 710 µM; at Galectin-4 [2], 6.5 µM; at Galectin-8 [3], 900 µM. Also, in [4], the inhibition – broadly, how much of the control response was suppressed – is below 20%. Moreover, the IC50 – broadly, the concentration that inhibits the measured activity by half – in data set [5] came to 150 µM.

For `CO[C@@H]1O[C@H](CO)[C@H](O)[C@H](OC(=O)c2ccc(C)cc2)[C@@H]1OC(=O)c1ccc(Cl)cc1[N+](=O)[O-]`, the Kd at Galectin-1 came out at 1400 µM; on Galectin-4 [1], 250 µM; on Galectin-4 [2], 18 µM; on Galectin-8 [6] it was 4000 µM; at Galectin-8 [3], 450 µM. Moreover, the half-maximal inhibitory concentration (IC50) in data set [5] is 128 µM.

`CO[C@@H]1O[C@H](CO)[C@H](O)[C@H](OC(=O)c2ccc(C)cc2)[C@@H]1OC(=O)c1ccc(C(F)(F)F)cc1[N+](=O)[O-]`: the dissociation constant (Kd) came to 4000 µM on Galectin-1, 1400 µM at Galectin-4 [1], 40 µM on Galectin-4 [2] and 1900 µM on Galectin-8 [3]. In addition, the inhibition in [4] was below 20%. Also, the half-inhibitory concentration (IC50) in data set [5] was found to be 83 µM. Further, the Activity result in the data set on LAX40 [7] and with LAX40 [8] was “Tde” in each case.

Consider `CO[C@@H]1O[C@H](CO)[C@H](O)[C@H](OC(=O)c2ccc(C)cc2)[C@@H]1OC(=O)c1ccccc1[N+](=O)[O-]`, for which the equilibrium dissociation constant (Kd) on Galectin-4 [1] came to 440 µM; on Galectin-4 [2], 48 µM; in data set [9] it was 1800 µM. In addition, in [4], the inhibition is below 20%. Moreover, the Activity result was “Dde” in the data set on TXL2, “Dde” in the data set with US7, “Tde” with LAX40 [7] and “Tde” with LAX40 [8]. For the same molecule, the IC50 in [5] is 307 µM. Besides, the viability at 72 h, 100 µM in [10] is at least 65%.

As for `CO[C@@H]1O[C@H](CO)[C@H](O)[C@H](OC(=O)c2ccc(C)cc2)[C@@H]1OC(C)=O`, the Kd was 4100 µM on Galectin-1, 2900 µM at Galectin-4 [2] and 420 µM at Galectin-3. Further, the inhibition in [4] and in [11] was below 20% throughout.

For the molecule `CO[C@@H]1O[C@H](CO)[C@H](O)[C@H](OC(=O)c2ccc(C)cc2)[C@@H]1OC(=O)c1cccc([N+](=O)[O-])c1`, the dissociation constant (Kd) is 2700 µM at Galectin-1; 1400 µM on Galectin-4 [1]; 630 µM on Galectin-4 [2]; 4000 µM on Galectin-8 [3]; 130 µM on Galectin-3. Moreover, the inhibition in data set [4] was below 20%. Besides, in data set [5], the IC50 came to 138 µM.
